The test system of test [1] is DUX4. Description: Immunofluorescent count of DUX4(+) nuclei in MHC(+) myotubes. It counts as cell-based, human. Particulars: for reduction in the number of nuclei expressing DUX4: FSHD1(2349) myotubes, KOSR medium. On the procedure: (§1) Primary human myoblasts were obtained by written informed consent through the Fields Center at the University of Rochester cell bank. Myoblasts were grown in F10 medium (INVITROGEN, Carlsbad, Calif.) supplemented with 20% fetal bovine serum (FBS; THERMO SCIENTIFIC (HYCLONE), and 50 U/50 μg penicillin/streptomycin (Pen-Strep; INVITROGEN), 10 ng bFGF (INVITROGEN), and 1 μM dexamethasone (SIGMA ALDRICH; St. Louis, […].)^9. Differentiation was induced using F10 medium supplemented with 1% equine serum and ITS supplement (insulin 0.1%, 0.000067% sodium selenite, 0.055% transferrin; INVITROGEN), or in DMEM:F12 (1:1) with 3.151 g/L glucose, 10 mM non-essential amino acids (INVITROGEN), […] sodium pyruvate, 20% knockout serum replacer (INVITROGEN, #10828010). Pharmacological inhibitor of glycogen synthase kinase-3-β (GSKi) was used at a final concentration of 3 μM (CHIR99021, STEMGENT; Cambridge. Mass.). Recombinant human Wnt3A was used at a concentration of 250 ng/mL, and confirmed to be bioactive prior to use in the assays described herein.
Immunofluorescent staining for DUX4 was performed using the E5-5 rabbit monoclonal antibody to the C-terminus of DUX4 ^34. Staining was performed by fixing the cells in 4% paraformaldehyde for 10 mins at room temperature, washing with PBS, permeablizing with 0.5% TritonX-100 in PBS for 10 mins at room temperature. The cells were then washed again in PBS and incubated overnight in a 1:10 dilution of the E5-5 antibody. The following day, the cells were washed 3×5 min in PBS and stained using a fluorescent conjugated secondary goat-anti rabbit secondary antibody for 1-2 hr at room temperature. […]
To quantify DUX4 expression, the Nikon Ti Eclipse microscope was programmed using the Nikon Elements software to take 36 pictures at random on a 35 mm culture dish, or to scan an entire well of a 384 well dish. These images were then manually inspected and DUX4 (+) nuclei counted. […] The average sum pixel intensity for single nuclei from each image was determined, and used to calculate the number of nuclei within clusters. […]

The test system of test [2] is DUX4. Description: RT PCR of DUX4 transcripts in primary human cells. The class given is cell-based. Particulars: normal(NR201) and FSHD2(2305) primary human cells, 3 μM GSKi. On the procedure: as §1
RNA was isolated by TRIZOL extraction according to the manufacturers protocol (INVITROGEN), except that the final ethanol precipitate was resuspended 1×DNase I buffer and 5 U DNase I for 15 mins and the RNA was extracted with phenol/chloroform and precipitated with ethanol using RNase-free glycogen (NEW ENGLAND BIOLABS) as a carrier. […]

In the next test the test system is DUX4 promoter. Description: D4Z4(FFL) DUX4 promoter luciferase reporter in C2C12 cells. The class given is cell-based. The settings on record: 3 μM GSKi, vs DMSO. The procedure:
The D4Z4 regulatory region controlling the expression of DUX4^31 was subcloned upstream of the open reading from of the pGL3-basic vector (pGL3) to make D4Z4(FFL). The D4Z4(FFL) was excised using XbaI/SpeI restriction enzymes and ligated into the SpeI site of a 3rd generation lentiviral vector multiple cloning site (pRRL-sinc-PPT-MCS; Gift from Dr. Grant Trobridge).
Cells transduced with D4Z4(FFL) lentivirus vector were seeded in a 96 well dish. Thirty minutes prior to the assay, Hoescht Dye was added to the cell culture medium to a final concentration of 5 μm, and 30 min later the plate was analyzed for DNA content by measuring fluorescence at 355 nm using a multiwell plate reader (ENVISION; PERKIN-ELMER). An equal volume of STEADY-GLO (PROMEGA) was added to each well, and transferred to an opaque dish. Luminescence was read using the plate reader, and normalized to DNA content for each well.

For another test, the system named is FSHD-myotubes. The experiment in a line: DUX4-mediated myotube death / apoptosis in FSHD myotubes differentiated in KOSR medium. The class given is cell-based, human. Particulars: for DUX4-mediated myotube death: FSHD-myotubes, KOSR differentiation medium, data not shown. On the procedure:
Primary human myoblasts were obtained by written informed consent through the Fields Center at the University of Rochester cell bank. […] Pharmacological inhibitor of glycogen synthase kinase-3-β (GSKi) was used at a final concentration of 3 μM (CHIR99021, STEMGENT; Cambridge. Mass.).
Immunofluorescent staining for DUX4 was performed using the E5-5 rabbit monoclonal antibody to the C-terminus of DUX4 ^34. Staining was performed by fixing the cells in 4% paraformaldehyde for 10 mins at room temperature, washing with PBS, permeablizing with 0.5% TritonX-100 in PBS for 10 mins at room temperature. The cells were then washed again in PBS and incubated overnight in a 1:10 dilution of the E5-5 antibody. The following day, the cells were washed 3×5 min in PBS and stained using a fluorescent conjugated secondary goat-anti rabbit secondary antibody for 1-2 hr at room temperature. Following a final wash, the cells were counterstained with 4′,6-Diamidino-2-phenylindole dihydrochloride (DAPI, SIGMA ALDRICH), and visualized by microscopy using UV illumination.
To quantify DUX4 expression, the Nikon Ti Eclipse microscope was programmed using the Nikon Elements software to take 36 pictures at random on a 35 mm culture dish, or to scan an entire well of a 384 well dish. These images were then manually inspected and DUX4 (+) nuclei counted. To determine the myotube index, the Nikon Elements software was used to create binary masks of the DAPI and MHC channels for each image. This technique created a border around each nucleus or cluster of nuclei which could then be used to measure the sum pixel intensity from the DAPI channel. The average sum pixel intensity for single nuclei from each image was determined, and used to calculate the number of nuclei within clusters. By intersecting the binary images from the DAPI and MHC channels the inventors could exclude the nuclei that were outside of MHC(+) myotubes, and create a myotube fusion index. The myotube fusion index was compared to manual counts to confirm accuracy of the calculations.

The next test concerns FSHD myotubes. Description: Cell viability assay (ATP content normalized to DNA content). It counts as cell-based, human. Particulars: cultured in the absence or presence of GSKi. On the procedure:
Hoescht Dye was added to cells in culture for 30 minutes at a final concentration of 5 μM. Following detachment with trypsin a 50 μL aliquot of the cells was assayed for fluorescence at 355 nm to give an absorbance value for DNA content. An equal volume of CELL TITRE GLO (PROMEGA) was then added to the aliquot, and luminescence was measured. The luminescent value was normalized to the absorbance value for DNA content.

“Also recorded” adds a separate entry of the source.

In the case of `Cc1c[nH]c(-c2cnc(NCCNc3ccc(C#N)cn3)nc2-c2ccc(Cl)cc2Cl)n1` [GSKi], the “reduction in the number of DUX4(+) nuclei in myotubes” value in the test on DUX4 [1] (FSHD myoblasts differentiated in the presence of 3 μM GSKi, three cell lines) is recorded as “greater than 50%”. In the test on DUX4 [2], the “upregulation of DUX4 expression during myotube formation (DUX4 transcripts)” value was “reduced the characteristic upregulation of DUX4 expression”. In addition, in the test on DUX4 promoter, the “upregulation of DUX4 expression during myotube formation (luciferase activity normalized to DNA content)” value is recorded as “reduced the characteristic upregulation of DUX4 expression”. Besides, in the test with FSHD-myotubes (FSHD myotubes, GSKi treatment alone (3 μM)), the myotube apoptosis entry is reported as “did not prevent myotube apoptosis; also recorded: insufficient to prevent apoptosis”. Moreover, the “ATP content of myoblasts or myotubes” value with FSHD myotubes is given as “No difference”.
For the molecule `O=C(NCc1ccccc1)c1csc(Nc2ccncn2)n1` [Thiazovivin], in the test with DUX4 [1] (0.5 μM Thiazovivin), the “reduction in the number of nuclei expressing DUX4” value is 10 fold. Besides, in the test with FSHD-myotubes, the DUX4-mediated myotube death entry is listed as “also prevented DUX4-mediated myotube death”.
Take `C[C@@H](N)[C@H]1CC[C@H](C(=O)Nc2ccncc2)CC1` [Y-27632]: in the test with DUX4 [1] (10 μM Y-27632), the “reduction in the number of nuclei expressing DUX4” value came out at 10 fold. The DUX4-mediated myotube death entry in the test on FSHD-myotubes was “also prevented DUX4-mediated myotube death”.
With `O=C1O[C@H]([C@@H](O)CO)C(O)=C1O` [ascorbic acid], in the test with FSHD-myotubes, the DUX4-mediated myotube death result is “observed DUX4-dependent myotube apoptosis despite treatments”.
Still for that read-out and setting: then `Cc1ccc(C(=O)Cn2c3c(sc2=N)CCCC3)cc1` [pifithrin-α], with “efficiently prevented DUX4-mediated myotube death”; and `OCCS` [β-mercapto-ethanol], with “observed DUX4-dependent myotube apoptosis despite treatments”; and Arsenic trioxide, with “efficiently prevented DUX4-mediated myotube death”.

(Values after patent US20150301067A1, “METHODS AND ASSAYS FOR FACIOSCAPULOHUMERAL MUSCULAR DYSTROPHY” (UNIVERSITY OF WASHINGTON THROUGH ITS CENTER FOR …, priority 2012, published 2015).)
